# Key:
# rituximab = conditions: forward and reverse sequences; not bound by other anti-CD20 mAbs; cited from earlier work
# Text: The peptide […] from the resem ...
# rituximab (RTX) = assay: First screen of the resemblance-ranking peptide library with RTX, fluorescent immunostaining; assay type: binding; conditions: RTX 30 µg/mL; among 160,000 peptides
# Method: Peptide microarrays: A peptide library of 160,000, peptides as well other peptide microarrays for the substitutions and the KD analysis, were fabricated via the ultra-high-density peptide microarray technology of AXXELERA (Karlsruhe, Germany) [49]. The AXXELERA technology allows for the 30 µm-sized square peptide spots with a pitch of 60 µm that corresponds to ca. 28,000 spots/cm^2.
# Immunostaining: Peptide microarrays were incubated with the monoclonal anti-CD20 antibody rituximab (Sigma-Aldrich, Steinheim, Germany) with concentrations depending on the type of experiment, diluted in PBS-T (Phosphate Buffered Saline with Tween) overnight at 4 °C. A rituximab concentration of 30 µg/mL was used for the first screen of the entire resemblance-ranking peptide library. Then, the peptide chips were stained with the fluorescently labeled secondary anti-human-IgG antibodies (Jackson ImmunoResearch, Philadelphia, PA, USA). The signals from the spots were read out with the confocal scanner Innoscan 1100 AL. The scans were performed in the red channel (635 nm), with a resolution of 2 µm/pixel, a speed of 35 µm/s, and a PMT gain of 9.
Substance,binding to rituximab (rituximab),ratio to the maximum signal value (rituximab (RTX))
WPKWLE,bind rituximab,–
LWKPWLQPCC,–,0.13
ELWKPW,bind rituximab,–

# Reference: article PMC8999133, “Resemblance-Ranking Peptide Library to Screen for Binders to Antibodies on a Peptidomic Scale” (International Journal of Molecular Sciences, 2022)
